What all share (experiment): Kinase panel profiling at 1 µmol/L (MSA or IMAP), percentage inhibition
What all share (assay type): biochemical

The target in experiment [1] is T1, panel of 255 wild-type kinases (Homo sapiens, UniProt O00418).
T1 sequence (O00418 1-725): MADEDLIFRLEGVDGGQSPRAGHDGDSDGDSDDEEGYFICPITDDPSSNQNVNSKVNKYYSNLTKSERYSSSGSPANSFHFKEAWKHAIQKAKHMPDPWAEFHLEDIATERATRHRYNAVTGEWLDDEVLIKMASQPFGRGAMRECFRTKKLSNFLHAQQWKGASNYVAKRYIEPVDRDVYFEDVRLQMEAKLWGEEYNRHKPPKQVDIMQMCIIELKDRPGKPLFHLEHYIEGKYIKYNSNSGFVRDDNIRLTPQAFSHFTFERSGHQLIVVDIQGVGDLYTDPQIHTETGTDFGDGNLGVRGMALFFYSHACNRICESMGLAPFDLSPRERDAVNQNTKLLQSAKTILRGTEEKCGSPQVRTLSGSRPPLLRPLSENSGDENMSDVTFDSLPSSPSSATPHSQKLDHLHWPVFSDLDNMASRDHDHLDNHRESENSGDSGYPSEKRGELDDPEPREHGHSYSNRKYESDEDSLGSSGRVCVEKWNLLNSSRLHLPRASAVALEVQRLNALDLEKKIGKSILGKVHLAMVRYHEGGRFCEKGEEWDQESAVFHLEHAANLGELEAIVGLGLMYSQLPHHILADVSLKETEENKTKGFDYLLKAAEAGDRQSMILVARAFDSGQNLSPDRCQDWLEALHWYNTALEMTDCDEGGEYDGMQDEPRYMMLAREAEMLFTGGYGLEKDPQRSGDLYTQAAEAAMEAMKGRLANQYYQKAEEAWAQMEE
As to conditions: kinase EEF2K; 1 µmol/L single concentration; read-out: %-inhibition at 1 µmol/L, EEF2K.

For experiment [2], the target named is panel of 255 wild-type kinases (Homo sapiens, UniProt O43683). As to conditions: BUB1/BUB3 kinase assay; 1 µmol/L single concentration; read-out: %-inhibition BUB1/BUB3.
The target of experiment [3] is panel of 255 wild-type kinases (Homo sapiens, UniProt Q8TDX7). As to conditions: NEK7; 1 µmol/L single concentration; read-out: %-inhibition, NEK7.
Experiment [4] addresses T2, panel of 255 wild-type kinases (Homo sapiens, UniProt Q96PY6).
T2 sequence (Q96PY6 1-1258): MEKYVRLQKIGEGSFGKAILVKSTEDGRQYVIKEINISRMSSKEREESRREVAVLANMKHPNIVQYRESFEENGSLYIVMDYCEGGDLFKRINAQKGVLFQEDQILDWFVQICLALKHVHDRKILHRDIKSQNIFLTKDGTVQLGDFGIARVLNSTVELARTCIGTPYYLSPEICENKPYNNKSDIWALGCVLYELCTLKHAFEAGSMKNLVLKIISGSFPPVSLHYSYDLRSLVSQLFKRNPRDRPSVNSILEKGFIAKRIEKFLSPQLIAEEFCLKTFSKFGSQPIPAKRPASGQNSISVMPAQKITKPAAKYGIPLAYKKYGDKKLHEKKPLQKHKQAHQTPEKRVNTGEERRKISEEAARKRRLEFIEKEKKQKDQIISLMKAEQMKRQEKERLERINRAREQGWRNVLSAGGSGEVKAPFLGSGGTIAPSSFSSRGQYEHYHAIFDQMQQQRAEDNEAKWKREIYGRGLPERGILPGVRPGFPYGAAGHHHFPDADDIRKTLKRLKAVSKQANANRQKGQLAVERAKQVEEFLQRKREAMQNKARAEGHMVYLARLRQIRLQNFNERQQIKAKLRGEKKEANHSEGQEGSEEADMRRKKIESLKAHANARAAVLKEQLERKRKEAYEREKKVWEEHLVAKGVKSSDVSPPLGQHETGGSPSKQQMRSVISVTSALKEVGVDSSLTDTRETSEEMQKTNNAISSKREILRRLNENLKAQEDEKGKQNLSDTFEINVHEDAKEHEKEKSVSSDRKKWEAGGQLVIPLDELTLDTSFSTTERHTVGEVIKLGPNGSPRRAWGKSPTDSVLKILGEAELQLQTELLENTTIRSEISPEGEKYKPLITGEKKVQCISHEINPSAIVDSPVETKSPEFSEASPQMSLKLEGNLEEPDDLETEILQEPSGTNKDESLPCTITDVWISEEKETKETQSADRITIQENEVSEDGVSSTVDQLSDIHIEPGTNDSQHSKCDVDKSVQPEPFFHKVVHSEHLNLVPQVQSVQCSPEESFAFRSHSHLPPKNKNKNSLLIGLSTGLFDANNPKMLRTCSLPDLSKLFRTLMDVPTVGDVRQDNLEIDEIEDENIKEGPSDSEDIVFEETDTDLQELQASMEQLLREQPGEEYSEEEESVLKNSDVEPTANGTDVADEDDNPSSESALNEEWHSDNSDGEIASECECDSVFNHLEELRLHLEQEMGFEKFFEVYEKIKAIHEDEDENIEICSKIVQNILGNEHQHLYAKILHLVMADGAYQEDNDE
As to conditions: NEK1; 1 µmol/L single concentration; read-out: %-inhibition, NEK1.

For experiment [5], the target named is panel of 255 wild-type kinases (Homo sapiens, UniProt Q9P1W9). As to conditions: kinase PIM2; 1 µmol/L single concentration; read-out: %-inhibition at 1 µmol/L, PIM2.

In the case of `C=CC(=O)N1CCC([C@@H]2CCNc3c(C(N)=O)c(-c4ccc(Oc5ccccc5)cc4)nn32)CC1` [zanubrutinib], the inhibition at 1 µM in experiment [1] is 0.514%; in experiment [2] it was -6%; in experiment [3], 2%; in experiment [4], -4%; in experiment [5], -7%.

The values are drawn from article PMC9516332 (Frontiers in Oncology, 2022).
